Experimental data from paper PMC7413254 (Nature Communications, 2020).
Where two headings read alike, the source gives them in different places.

How the values were obtained:
non-expressing oocytes [1] = type: cell-based, Xenopus laevis; conditions: non-expressing oocytes, total [3H]CQ transport, normalised to the oocyte type control
Procedure, shortened: (§1)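 Oocytes (ten per treatment, ≥4 independent frogs/days) were preloaded by injecting VF-6 in 25 nL ND96 at pH 5.0, 5.5, 6.0 or 7.0, or Na^+-free choline buffer, then uptake run 1.5 h, 27.5 °C, ND96 pH 5.5 by default. Internal concentrations assumed ~400 nL oocyte volume.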

non-expressing oocytes [2] = assay: cells; type: cell-based, Xenopus laevis; conditions: non-expressing oocytes, total [3H]CQ transport, normalised to the oocyte type control
Procedure, shortened: (§2)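 Inward transport into oocyte cytosol from pH 5.5 medium models PfCRT efflux from the acidic digestive vacuole. Incubation 1.5 h, 27.5 °C; termination by ice-cold washes; lysate radioactivity counted.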

PfNT1 = target: T1, PfNT1 (Plasmodium falciparum, UniProt Q8IDM6); assay: cell-based; type: cell-based; conditions: PfNT1 oocytes, total [3H]CQ transport, normalised to the oocyte type control
T1 construct: expressed in transfected cells; host or cells: Xenopus laevis oocytes (stage V-VI), cRNA-injected
Procedure, shortened: as §1

PfCRT^Ecu1110 [3] = target: T2, PfCRT^Ecu1110 (Plasmodium falciparum, UniProt Q9N623, A220S/I356L/K76T/N326D); assay: cell-based; type: cell-based; conditions: for Uptake of [3H]CQ (% PfCRTEcu1110 control), trans-stimulation / PfCRT-mediated [3H]CQ transport, trans-stimulation (% PfCRTEcu1110 control): PfCRTEcu1110 oocytes; for Uptake of [3H]CQ (% PfCRTEcu1110 control), trans-stimulation: total [3H]CQ transport, normalised to the oocyte type control; for PfCRT-mediated [3H]CQ transport, trans-stimulation (% PfCRTEcu1110 control): normalised to oocyte type control; for [3H]CQ transport (% PfCRTDd2 control), trans-stimulation, PfCRTEcu1110: PfCRT-mediated component (background subtracted), sheet title says normalised to PfCRTDd2 control, mean ± SEM, SEM
Procedure, shortened: as §1

PfCRT^Dd2 [4] = target: T3, PfCRT^Dd2 (Plasmodium falciparum, UniProt Q9N623, A220S/I356T/K76T/M74I/N326S/N75E/Q271E/R371I); assay: cell-based; type: cell-based; conditions: for Uptake of [3H]CQ (% PfCRTDd2 control), trans-stimulation / PfCRT-mediated [3H]CQ transport, trans-stimulation (% PfCRTDd2 control): PfCRTDd2 oocytes; for Uptake of [3H]CQ (% PfCRTDd2 control), trans-stimulation: total [3H]CQ transport, normalised to the oocyte type control; for PfCRT-mediated [3H]CQ transport, trans-stimulation (% PfCRTDd2 control): normalised to oocyte type control; for [3H]CQ transport (% PfCRTDd2 control), trans-stimulation, PfCRTDd2: PfCRT-mediated component (background subtracted), mean ± SEM, SEM
Procedure, shortened: as §1

PfCRT^3D7 [5] = target: T4, PfCRT^3D7 (Plasmodium falciparum, UniProt Q8IBZ9); assay: cell-based; type: cell-based; conditions: PfCRT3D7 oocytes; for Uptake of [3H]CQ (% PfCRT3D7 control), trans-stimulation: total [3H]CQ transport, normalised to the oocyte type control; for PfCRT-mediated [3H]CQ transport, trans-stimulation (% PfCRT3D7 control): normalised to oocyte type control
Procedure, shortened: as §1

PfCRT^3D7 [6] = target: T4, PfCRT^3D7; assay: cell-based; type: cell-based; conditions: PfCRT3D7 oocytes, total [3H]CQ transport, normalised to the oocyte type control
Procedure, shortened: as §2

PfCRT^Ecu1110 [7] = target: T2, PfCRT^Ecu1110; assay: [3H]CQ uptake into Xenopus oocytes, cis-inhibition by unlabelled solute; type: cell-based; conditions: for Uptake of [3H]CQ (% PfCRTEcu1110 control), cis-inhibition / PfCRT-mediated [3H]CQ transport, cis-inhibition (% PfCRTEcu1110 control): PfCRTEcu1110 oocytes; for Uptake of [3H]CQ (% PfCRTEcu1110 control), cis-inhibition: total [3H]CQ transport, normalised to the oocyte type control; for PfCRT-mediated [3H]CQ transport, cis-inhibition (% PfCRTEcu1110 control): background [3H]CQ accumulation subtracted, normalised to oocyte type control; for [3H]CQ transport (% PfCRTEcu1110 control), cis-inhibition, PfCRTEcu1110: PfCRT-mediated component (background subtracted), sheet title says normalised to PfCRTDd2 control, mean ± SEM, SEM
Procedure, shortened: as §2

PfCRT^Dd2 [8] = target: T3, PfCRT^Dd2; assay: as above; type: cell-based; conditions: PfCRTDd2 oocytes, background [3H]CQ accumulation subtracted, normalised to oocyte type control
Procedure, shortened: as §2

[9] = [test solute]i = 45 mM (30 mM for some solutes due to solubility)
[10] = [test solute]i = 5 mM (intracellular)
[11] = [test solute]i = 45 mM (intracellular; 30 mM for some solutes due to solubility)
[12] = [test solute]i = 5 mM (injected)

T2 sequence (Q9N623 whole entry A220S/I356L/K76T/N326D): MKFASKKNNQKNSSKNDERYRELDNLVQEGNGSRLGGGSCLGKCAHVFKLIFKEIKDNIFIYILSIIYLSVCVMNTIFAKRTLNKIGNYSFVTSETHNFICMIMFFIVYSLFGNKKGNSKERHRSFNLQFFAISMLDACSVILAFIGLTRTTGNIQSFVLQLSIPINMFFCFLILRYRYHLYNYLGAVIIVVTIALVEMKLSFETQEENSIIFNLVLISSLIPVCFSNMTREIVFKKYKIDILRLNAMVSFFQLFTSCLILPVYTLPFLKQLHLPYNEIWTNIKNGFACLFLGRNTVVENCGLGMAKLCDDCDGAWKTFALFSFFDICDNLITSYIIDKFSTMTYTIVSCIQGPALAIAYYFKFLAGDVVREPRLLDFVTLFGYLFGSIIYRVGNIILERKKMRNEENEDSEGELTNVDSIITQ
T3 sequence (Q9N623 whole entry A220S/I356T/K76T/M74I/N326S/N75E/Q271E/R371I): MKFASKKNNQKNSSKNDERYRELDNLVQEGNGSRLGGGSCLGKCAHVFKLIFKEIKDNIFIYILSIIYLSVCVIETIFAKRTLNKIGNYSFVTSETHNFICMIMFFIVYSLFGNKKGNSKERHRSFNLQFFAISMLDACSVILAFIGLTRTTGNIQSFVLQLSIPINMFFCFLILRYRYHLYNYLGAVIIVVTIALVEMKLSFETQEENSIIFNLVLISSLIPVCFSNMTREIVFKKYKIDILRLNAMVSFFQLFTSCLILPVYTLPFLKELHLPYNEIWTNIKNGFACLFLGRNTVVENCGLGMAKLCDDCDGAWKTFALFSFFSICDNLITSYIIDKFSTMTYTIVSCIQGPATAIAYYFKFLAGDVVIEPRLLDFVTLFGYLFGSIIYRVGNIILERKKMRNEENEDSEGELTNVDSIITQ
T4 sequence (Q8IBZ9 59-398): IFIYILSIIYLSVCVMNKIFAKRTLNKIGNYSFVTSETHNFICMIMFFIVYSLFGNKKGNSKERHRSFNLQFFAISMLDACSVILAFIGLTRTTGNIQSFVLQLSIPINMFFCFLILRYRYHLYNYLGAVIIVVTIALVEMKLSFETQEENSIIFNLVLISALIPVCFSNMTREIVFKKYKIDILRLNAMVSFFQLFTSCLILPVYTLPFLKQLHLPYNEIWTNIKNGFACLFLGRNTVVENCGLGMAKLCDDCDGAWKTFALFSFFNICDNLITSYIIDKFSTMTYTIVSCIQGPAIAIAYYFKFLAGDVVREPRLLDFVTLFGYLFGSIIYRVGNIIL
T1 sequence (Q8IDM6 whole entry): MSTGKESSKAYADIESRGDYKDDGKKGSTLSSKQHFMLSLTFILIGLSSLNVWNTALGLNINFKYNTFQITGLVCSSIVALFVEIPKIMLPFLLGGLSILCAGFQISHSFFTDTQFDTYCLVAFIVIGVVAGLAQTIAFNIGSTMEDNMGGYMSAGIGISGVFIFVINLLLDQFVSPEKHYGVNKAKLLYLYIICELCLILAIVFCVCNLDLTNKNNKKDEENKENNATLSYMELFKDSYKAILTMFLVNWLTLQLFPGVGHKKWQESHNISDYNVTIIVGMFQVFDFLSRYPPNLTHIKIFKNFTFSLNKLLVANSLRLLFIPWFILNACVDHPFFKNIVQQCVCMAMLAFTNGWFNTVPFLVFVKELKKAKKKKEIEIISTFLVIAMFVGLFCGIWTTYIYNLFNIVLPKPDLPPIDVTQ

## PNAL [PL-4, host-derived peptide]
non-expressing oocytes [1]; [test solute]i = 5 mM
  Uptake of [3H]CQ (% non-expressing oocyte control), trans-stimulation: 100 ± 3.8 % non-expressing oocyte control
non-expressing oocytes [1]; [9]
  Uptake of [3H]CQ (% non-expressing oocyte control), trans-stimulation: 99 ± 3.7 % non-expressing oocyte control
non-expressing oocytes [2]; [test solute] = 1 mM
  Uptake of [3H]CQ (% non-expressing oocyte control), cis-inhibition: 100 ± 4.7 % non-expressing oocyte control
non-expressing oocytes [2]; [test solute] = 2 mM
  Uptake of [3H]CQ (% non-expressing oocyte control), cis-inhibition: 99 ± 3.6 % non-expressing oocyte control
PfNT1; [test solute]i = 5 mM
  Uptake of [3H]CQ (% PfNT1 control), trans-stimulation: 99 ± 3.2 % PfNT1 control
PfNT1; [9]
  Uptake of [3H]CQ (% PfNT1 control), trans-stimulation: 100 ± 2.4 % PfNT1 control
PfCRT^Ecu1110 [3]; [test solute]i = 5 mM
  Uptake of [3H]CQ (% PfCRTEcu1110 control), trans-stimulation: 99 ± 3.3 % PfCRTEcu1110 control
PfCRT^Ecu1110 [3]; [9]
  Uptake of [3H]CQ (% PfCRTEcu1110 control), trans-stimulation: 100 ± 2.2 % PfCRTEcu1110 control
  [3H]CQ transport (% PfCRTDd2 control), trans-stimulation, PfCRTEcu1110: 30 ± 1.4 % PfCRTEcu1110 control
PfCRT^Ecu1110 [3]; [10]
  PfCRT-mediated [3H]CQ transport, trans-stimulation (% PfCRTEcu1110 control): 97 ± 4.9 % PfCRTEcu1110 control
PfCRT^Ecu1110 [3]; [11]
  PfCRT-mediated [3H]CQ transport, trans-stimulation (% PfCRTEcu1110 control): 98 ± 3.0 % PfCRTEcu1110 control
PfCRT^Ecu1110 [3]; [12]
  [3H]CQ transport (% PfCRTDd2 control), trans-stimulation, PfCRTEcu1110: 29 ± 1.7 % PfCRTEcu1110 control
PfCRT^Dd2 [4]; [test solute]i = 5 mM
  Uptake of [3H]CQ (% PfCRTDd2 control), trans-stimulation: 99 ± 3.4 % PfCRTDd2 control
PfCRT^Dd2 [4]; [9]
  Uptake of [3H]CQ (% PfCRTDd2 control), trans-stimulation: 97 ± 4.3 % PfCRTDd2 control
  [3H]CQ transport (% PfCRTDd2 control), trans-stimulation, PfCRTDd2: 95 ± 3.8 % PfCRTDd2 control
PfCRT^Dd2 [4]; [10]
  PfCRT-mediated [3H]CQ transport, trans-stimulation (% PfCRTDd2 control): 97 ± 2.1 % PfCRTDd2 control
PfCRT^Dd2 [4]; [11]
  PfCRT-mediated [3H]CQ transport, trans-stimulation (% PfCRTDd2 control): 95 ± 3.8 % PfCRTDd2 control
PfCRT^Dd2 [4]; [12]
  [3H]CQ transport (% PfCRTDd2 control), trans-stimulation, PfCRTDd2: 97 ± 2.1 % PfCRTDd2 control
PfCRT^3D7 [5]; [test solute]i = 5 mM
  Uptake of [3H]CQ (% PfCRT3D7 control), trans-stimulation: 100 ± 2.2 % PfCRT3D7 control
PfCRT^3D7 [5]; [9]
  Uptake of [3H]CQ (% PfCRT3D7 control), trans-stimulation: 101 ± 2.1 % PfCRT3D7 control
PfCRT^3D7 [5]; [10]
  PfCRT-mediated [3H]CQ transport, trans-stimulation (% PfCRT3D7 control): 98 ± 4.3 % PfCRT3D7 control
PfCRT^3D7 [5]; [11]
  PfCRT-mediated [3H]CQ transport, trans-stimulation (% PfCRT3D7 control): 99 ± 3.4 % PfCRT3D7 control
PfCRT^3D7 [6]; [test solute] = 0.5 mM
  Uptake of [3H]CQ (% PfCRT3D7 control), cis-inhibition: 99 ± 5.3 % PfCRT3D7 control
PfCRT^3D7 [6]; [test solute] = 1 mM
  Uptake of [3H]CQ (% PfCRT3D7 control), cis-inhibition: 98 ± 5.7 % PfCRT3D7 control
PfCRT^3D7 [6]; [test solute] = 2 mM
  Uptake of [3H]CQ (% PfCRT3D7 control), cis-inhibition: 101 ± 6.3 % PfCRT3D7 control
PfCRT^Ecu1110 [7]; [test solute] = 0.5 mM
  Uptake of [3H]CQ (% PfCRTEcu1110 control), cis-inhibition: 66 ± 2.9 % PfCRTEcu1110 control
  PfCRT-mediated [3H]CQ transport, cis-inhibition (% PfCRTEcu1110 control): 58 ± 0.5 % PfCRTEcu1110 control
  [3H]CQ transport (% PfCRTEcu1110 control), cis-inhibition, PfCRTEcu1110: 18 ± 0.2 % PfCRTEcu1110 control
PfCRT^Ecu1110 [7]; [test solute] = 1 mM
  Uptake of [3H]CQ (% PfCRTEcu1110 control), cis-inhibition: 57 ± 2.7 % PfCRTEcu1110 control
  PfCRT-mediated [3H]CQ transport, cis-inhibition (% PfCRTEcu1110 control): 52 ± 2.6 % PfCRTEcu1110 control
  [3H]CQ transport (% PfCRTEcu1110 control), cis-inhibition, PfCRTEcu1110: 16 ± 0.1 % PfCRTEcu1110 control
PfCRT^Ecu1110 [7]; [test solute] = 2 mM
  Uptake of [3H]CQ (% PfCRTEcu1110 control), cis-inhibition: 45 ± 2.4 % PfCRTEcu1110 control
  PfCRT-mediated [3H]CQ transport, cis-inhibition (% PfCRTEcu1110 control): 39 ± 2.1 % PfCRTEcu1110 control
  [3H]CQ transport (% PfCRTEcu1110 control), cis-inhibition, PfCRTEcu1110: 12 ± 0.3 % PfCRTEcu1110 control
PfCRT^Dd2 [8]; [test solute] = 0.5 mM
  PfCRT-mediated [3H]CQ transport, cis-inhibition (% PfCRTDd2 control): 68 ± 2.6 % PfCRTDd2 control
PfCRT^Dd2 [8]; [test solute] = 1 mM
  PfCRT-mediated [3H]CQ transport, cis-inhibition (% PfCRTDd2 control): 55 ± 4.1 % PfCRTDd2 control
PfCRT^Dd2 [8]; [test solute] = 2 mM
  PfCRT-mediated [3H]CQ transport, cis-inhibition (% PfCRTDd2 control): 39 ± 1.8 % PfCRTDd2 control
